Experimental findings from patent US20130053385A1, “METHOD OF COMBATING AND CONTROLLING PESTS” (SYNGENTA LIMITED, priority 2009, published 2013) are described below.

Some results are limits rather than exact numbers.

In the assay the test system is Tetranychus urticae (Two-Spotted Spider Mite). The experiment in a line: Activity against Tetranychus urticae, mixed population, feeding/residual contact activity, preventive (bean leaf discs, Example B4). Format: in vivo. Particulars: foliar, 192 h, 400 ppm, sprayed bean leaf discs, 8 days, mixed-age mites, read-out: activity (egg, larval and adult mortality). From the text: Activity Against Tetranychus urticae (Two-Spotted Spider Mite)
(mixed population, feeding/residual contact activity, preventive)
Bean leaf discs on agar in 24-well microtiter plates are sprayed with test solutions. After drying, the leaf discs are infested with mite populations of mixed ages. 8 days later, discs are checked for egg mortality, larval mortality, and adult mortality.
For the compound `Cc1cc(C)c(C2=C(OS(=O)(=O)C3CC3)CC(CC3CCOC3)C2=O)c(C)c1` (stereo not drawn) [Compound P28], the mortality at 400 ppm was > 80%.
With `Cc1cc(C)c(C2=C(OC(=O)C(C)(C)C)CC(CCC3CCOCC3)C2=O)c(C)c1` (stereo not drawn) [Compound P34] the figure was > 80%.
Consider `Cc1cc(C)c(C2=C(OC(=O)C(C)(C)C)CC(CC3COCCO3)C2=O)c(C)c1` (stereo not drawn) [Compound P49], for which the mortality at 400 ppm is > 80%.
With `CON1CCC(CC2CC(OC(=O)C(C)(C)C)=C(c3c(C)cc(C)cc3C)C2=O)CC1` (stereo not drawn) [Compound P51] the figure was > 80%; with `Cc1cc(C)c(C2=C(OC(=O)C(C)C)CC(CC3CCN(C(=O)C(C)C)C3)C2=O)c(C)c1` (stereo not drawn) [Compound P58], > 80%.
With `Cc1cc(C)c(C2=C(OC(=O)C(C)(C)C)CC(CC3CCN(C(=O)C(C)(C)C)C3)C2=O)c(C)c1` (stereo not drawn) [Compound P59] the figure was > 80%; with `Cc1cc(C)c(C2=C(OC(=O)c3ccco3)CC(CC3CCN(C(=O)c4ccco4)C3)C2=O)c(C)c1` (stereo not drawn) [Compound P62], > 80%; with `Cc1cc(C)c(C2=C(OC(=O)c3c(C)noc3C)CC(CC3CCN(C(=O)c4c(C)noc4C)C3)C2=O)c(C)c1` (stereo not drawn) [Compound P63], > 80%.
Take `CCC(=O)OC1=C(c2c(C)cc(C)cc2C)C(=O)C(CC2CCN(C(=O)CC)CC2)C1` (stereo not drawn) [Compound P65]: the mortality at 400 ppm was > 80%.
The same measure for `Cc1cc(C)c(C2C(=O)CC(C(O)C3CCSCC3)C2=O)c(C)c1` (stereo not drawn) [Compound T6]: > 80%; for `Cc1cc(C)c(C2C(=O)CC(CCC3CCOCC3)C2=O)c(C)c1` (stereo not drawn) [Compound T21]: > 80%.
With `Cc1cc(C)c(C2C(=O)CC(C)(CC3CCOC3)C2=O)c(C)c1` (stereo not drawn) [Compound T30] the figure was > 80%.
The same measure for `Cc1cc(C)c(C2C(=O)C/C(=C\C3CCN(C(=O)c4ccccc4)C3)C2=O)c(C)c1` (stereo not drawn) [Compound T34]: > 80%.
As to `CC(=O)N1CCC(CC2CC(=O)C(c3c(C)cc(C)cc3C)C2=O)C1` (stereo not drawn) [Compound T35], the mortality at 400 ppm is > 80%.
The same measure for `Cc1cc(C)c(C2C(=O)CC(CC3COCCO3)C2=O)c(C)c1` (stereo not drawn) [Compound T40]: > 80%.
The same measure for `Cc1cc(C)c(C2C(=O)CC(CC3CCN(C(=O)c4ccccc4)C3)C2=O)c(C)c1` (stereo not drawn) [Compound T41]: > 80%.
With `COC(=O)N1CCC(CC2CC(=O)C(c3c(C)cc(C)cc3C)C2=O)C1` (stereo not drawn) [Compound T43] the figure was > 80%.
Turning to `CCC1CCC(CC2CC(=O)C(c3c(C)cc(C)cc3C)C2=O)O1` (stereo not drawn) [Compound T44], the mortality at 400 ppm was > 80%.
Consider `CC(=O)N1CCCCC1CC1CC(=O)C(c2c(C)cc(C)cc2C)C1=O` (stereo not drawn) [Compound T48], for which the mortality at 400 ppm is > 80%.
Consider `CCc1cc(C)cc(C)c1C1C(=O)CC(CC2CCOCC2)C1=O` (stereo not drawn) [Compound T50], for which the mortality at 400 ppm is > 80%.
`Cc1cc(C)c(C2C(=O)CC(CC3CCN(C(=O)OC(C)(C)C)CC3)C2=O)c(C)c1` (stereo not drawn) [Compound T55]: the mortality at 400 ppm was > 80%.
With `CCc1cc(C)cc(C)c1C1C(=O)CC(CCC2CCOCC2)C1=O` (stereo not drawn) [Compound T58] the figure was > 80%; with `Cc1cc(C)c(C2C(=O)CC(CC3CCN(c4ccc(Cl)cc4)CC3)C2=O)c(C)c1` (stereo not drawn) [Compound T60], > 80%.
The same measure for `Cc1cc(-c2ccccc2)cc(C)c1C1C(=O)C/C(=C\C2CCOCC2)C1=O` (stereo not drawn) [Compound T66]: > 80%.
With `Cc1cc(-c2ccccc2)cc(C)c1C1C(=O)CC(CC2CCOCC2)C1=O` (stereo not drawn) [Compound T67] the figure was > 80%; with `Cc1cc(C)c(C2C(=O)CC(CC3CCN(C(=O)c4ccccc4C)CC3)C2=O)c(C)c1` (stereo not drawn) [Compound T72], > 80%.
Turning to `Cc1cc(C)c(C2C(=O)CC(CC3CCN(S(=O)(=O)C(F)(F)F)CC3)C2=O)c(C)c1` (stereo not drawn) [Compound T112], the mortality at 400 ppm is > 80%.
